In ChEMBL document CHEMBL4715894, “Design and synthesis of an anthranyl bridged optically active dinuclear iron(II)-ligand and evaluation of DNA-cleaving activity” (Bioorg Med Chem Lett, 2021):
Calls of active or inactive are those of the source. The rule behind the calls is not given here.

Assays:
Type in all cases: nucleic-acid assay
dsDNA [1] = experiment: Induction of DNA cleavage in pBluescript II SK+ DNA (unknown origin) assessed as cleaved in 5'-CT-3' sequence at 30 uM in presence of Fe2+ at 30 uM after 30 mins by PAGE based DNA sequencing analysis
DNA [2] = experiment: Induction of DNA cleavage in Escherichia coli ER2272 pUC19 plasmid DNA assessed as linear DNA at 30 uM in presence of Fe2+ at 30 uM up to 15 mins by ethidium bromide staining based densitometric method; conditions: time min <=15
DNA [3] = experiment: Induction of DNA cleavage in Escherichia coli ER2272 pUC19 plasmid DNA assessed as increase in relaxed circular DNA at 30 uM in presence of Fe2+ at 30 uM by ethidium bromide staining based densitometric method; conditions: time min <=15
DNA [4] = experiment: Induction of DNA cleavage in Escherichia coli ER2272 pUC19 plasmid DNA assessed as decrease in supercoiled DNA at 0.1 to 50 uM in presence of Fe2+ at 10 uM after 60 mins by ethidium bromide staining based densitometric method relative to control; design: scale not given: the % may be the effect or the level left; conditions: dose 0.1-50 µM
DNA [5] = experiment: Induction of DNA cleavage in Escherichia coli ER2272 pUC19 plasmid DNA assessed as decrease in supercoiled DNA at 30 uM in presence of Fe2+ at 30 uM by ethidium bromide staining based densitometric method; conditions: time min <=15
DNA [6] = experiment: Induction of DNA cleavage in Escherichia coli ER2272 pUC19 plasmid DNA assessed as linear DNA at 0.1 to 50 uM in presence of Fe2+ at >5 uM uM after 60 mins by ethidium bromide staining based densitometric method; conditions: dose 0.1-50 µM
DNA [7] = experiment: Induction of DNA cleavage in Escherichia coli ER2272 pUC19 plasmid DNA assessed as decrease in supercoiled DNA at 0.1 to 50 uM in presence of Fe2+ at 0.1 to 5 uM after 60 mins by ethidium bromide staining based densitometric method; conditions: dose 0.1-50 µM
DNA [8] = experiment: Induction of DNA cleavage in Escherichia coli ER2272 pUC19 plasmid DNA assessed as decrease in linear DNA at 0.1 to 50 uM in presence of Fe2+ at 30 to 50 uM after 60 mins by ethidium bromide staining based densitometric method; conditions: dose 0.1-50 µM
DNA [9] = experiment: Induction of DNA cleavage in Escherichia coli ER2272 pUC19 plasmid DNA assessed as decrease in supercoiled DNA at 0.1 to 50 uM in presence of Fe2+ at 30 to 50 uM after 60 mins by ethidium bromide staining based densitometric method; conditions: dose 0.1-50 µM
dsDNA [10] = experiment: Induction of DNA cleavage in pBluescript II SK+ DNA (unknown origin) assessed as cleaved in 5'-TTAATT-3' sequence at 5 uM in presence of Fe2+ at 30 uM after 10 mins by PAGE based DNA sequencing analysis
dsDNA [11] = experiment: Induction of DNA cleavage in pBluescript II SK+ DNA (unknown origin) assessed as cleaved in 5'-AATTCCGGAA-3' sequence at 5 uM in presence of Fe2+ at 30 uM after 10 mins by PAGE based DNA sequencing analysis
DNA [12] = experiment: Induction of DNA cleavage in Escherichia coli ER2272 pUC19 plasmid DNA assessed as decrease in linear DNA at 15 uM in presence of Fe2+ at 30 uM <=15 min by ethidium bromide staining based densitometric method; conditions: time min <=15
DNA [13] = experiment: Induction of DNA cleavage in Escherichia coli ER2272 pUC19 plasmid DNA assessed as increase in linear DNA at 15 uM in presence of Fe2+ at 30 uM after 1 min by ethidium bromide staining based densitometric method
DNA [14] = experiment: Induction of DNA cleavage in Escherichia coli ER2272 pUC19 plasmid DNA assessed as decrease in supercoiled DNA at 15 uM in presence of Fe2+ at 30 uM after 1 min by ethidium bromide staining based densitometric method relative to control
DNA [15] = experiment: Induction of DNA cleavage in Escherichia coli ER2272 pUC19 plasmid DNA assessed as decrease in relaxed circular DNA at 0.1 to 50 uM in presence of Fe2+ at 10 uM after 60 mins by ethidium bromide staining based densitometric method; conditions: dose 0.1-50 µM
DNA [16] = experiment: Induction of DNA cleavage in Escherichia coli ER2272 pUC19 plasmid DNA assessed as increase in relaxed circular DNA at 15 uM in presence of Fe2+ at 30 uM after 1 min by ethidium bromide staining based densitometric method
DNA [17] = experiment: Induction of DNA cleavage in Escherichia coli ER2272 pUC19 plasmid DNA assessed as decrease in relaxed circular DNA at 0.1 to 50 uM in presence of Fe2+ at 30 to 50 uM after 60 mins by ethidium bromide staining based densitometric method; conditions: dose 0.1-50 µM
DNA [18] = experiment: Induction of DNA cleavage in Escherichia coli ER2272 pUC19 plasmid DNA assessed as decrease in relaxed circular DNA at 15 uM in presence of Fe2+ at 30 uM <=15 min by ethidium bromide staining based densitometric method; conditions: time min <=15

| Compound | Activity (dsDNA [1]) | Activity (DNA [2]) | Activity (DNA [3]) | Activity (DNA [4]) | Activity (DNA [5]) | Activity (DNA [6]) | Activity (DNA [7]) | Activity (DNA [8]) | Activity (DNA [9]) | Activity (dsDNA [10]) | Activity (dsDNA [11]) | Activity (DNA [12]) | Activity (DNA [13]) | Activity (DNA [14]) | Activity (DNA [15]) | Activity (DNA [16]) | Activity (DNA [17]) | Activity (DNA [18]) |
| --- | --- | --- | --- | --- | --- | --- | --- | --- | --- | --- | --- | --- | --- | --- | --- | --- | --- | --- |
| N[C@@H]1CCCC[C@H]1N(Cc1ccccn1)Cc1ccccn1 | Active | inactive | Active | 100% | Active | Active | Active | – | – | – | – | – | – | – | – | – | – | – |
| c1ccc(CN(Cc2ccccn2)[C@@H]2CCCC[C@H]2NCc2cccc3cc4cccc(CN[C@@H]5CCCC[C@H]5N(Cc5ccccn5)Cc5ccccn5)c4cc23)nc1 | – | – | – | Active | – | Active | – | Active | Active | Active | Active | Active | Active | Active | Active | Active | Active | Active |
| N[C@H]1CCCC[C@@H]1N(Cc1ccccn1)Cc1ccccn1 | Active | – | – | 100% | – | Active | Active | – | – | – | – | – | – | – | – | – | – | – |
| c1ccc(CN(Cc2ccccn2)[C@H]2CCCC[C@@H]2NCc2cccc3cc4cccc(CN[C@H]5CCCC[C@@H]5N(Cc5ccccn5)Cc5ccccn5)c4cc23)nc1 | – | – | – | Active | – | Active | – | Active | Active | Active | Active | – | – | – | Active | – | Active | – |
